Experimental data reported in patent publication US11628160B2, “Compositions and methods for treating brain injury” (Azevan Pharmaceuticals, Inc., priority 2017, dated 2023).
Each block holds one molecule with its values, some of them ahead of it.

Experiments:
Pharmacokinetics = format: in vivo; conditions: b.i.d. dosing
Excerpt: EXAMPLE. Pharmacokinetics. Compounds described herein are rapidly absorbed after oral administration. Compounds described herein cross the blood-brain-barrier and achieve therapeutically effective concentrations in the CNS. Compounds described herein may be dosed according to a wide variety of protocols, including but not limited to q.d., b.i.d., and the like.

V2 = V2 (Homo sapiens, UniProt P30518); assay: V2 receptor inhibition data (Ki); format: binding; conditions: selectivity table
V1b receptor = target: T1, V1b receptor (Homo sapiens, UniProt P47901); assay: Human or rat vasopressin V1b cell-based receptor binding assay; conditions: selectivity table; read-out: inhibition data Ki, V1b
T1 construct: expressed in transfected cells; host or cells: CHO-K1 (ATCC), vector PCI-neo
T1 sequence (P47901 1-424): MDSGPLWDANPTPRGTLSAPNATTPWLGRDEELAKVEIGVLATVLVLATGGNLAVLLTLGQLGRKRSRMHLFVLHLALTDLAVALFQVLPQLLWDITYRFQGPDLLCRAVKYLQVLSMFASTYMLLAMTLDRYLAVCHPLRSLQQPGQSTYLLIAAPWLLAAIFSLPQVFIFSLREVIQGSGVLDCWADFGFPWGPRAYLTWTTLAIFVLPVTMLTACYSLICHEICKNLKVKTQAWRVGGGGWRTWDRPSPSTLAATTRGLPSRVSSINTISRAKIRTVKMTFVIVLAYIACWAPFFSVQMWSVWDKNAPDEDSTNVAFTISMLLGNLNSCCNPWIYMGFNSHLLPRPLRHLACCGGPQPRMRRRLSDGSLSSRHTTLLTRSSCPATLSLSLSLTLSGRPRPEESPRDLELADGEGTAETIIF
Excerpt: EXAMPLE. Human vasopressin V1b receptor-expressing cells. Human vasopressin receptor 1b (hV1b) cDNA (see, Lolait et al., “Extrapituitary expression of the rat V1b vasopressin receptor gene” Proc. Natl. Acad. Sci. USA. 92:6783-7 (1995); de Keyzer et al., “Cloning and characterization of the human V3(V1b) pituitary vasopressin receptor” FEBS Lett. 356:215-20 (1994); Sugimoto et al., “Molecular cloning and functional expression of a cDNA encoding the human V1b vasopressin receptor” J. Biol. Chem. 269:27088-92 (1994)) was inserted into a mammalian cell expression vector PCI-neo (Promega) at EcoR1 site. The recombinant plasmid carrying hV1b cDNA was identified from transformed E. Coli clones and used for the transfection of Chinese hamster ovary cell (CHO-K1, ATCC). Two micrograms of hV1b receptor DNA was introduced into 10^5 CHO cells cultured in 6-well plate, using Fugene-6 mediated transfection technique (Boehringer Mannheim). Twenty-four hrs post transfection, Cells were then cultured under selection of G-418 (0.25 mg/ml) supplemented to the culture medium. Three days later, limited dilution was carried out to obtain single cell clones in 96-well plates. […]
EXAMPLE. […] Samples were counted in a liquid scintillation counter (Beckman LS3801). IC50 and Ki values were calculated using Prism Curve fitting software. […]

human V1a receptor [1] = target: T2, human V1a receptor (Homo sapiens, UniProt P37288); assay: Inhibition of phosphatidylinositol turnover (V1a); format: cell-based; conditions: hV1a cells
T2 construct: host or cells: CHO cells
Excerpt: EXAMPLE. Inhibition of phosphatidylinositol turnover (V1a). The physiological effects of vasopressin are mediated through specific G-protein coupled receptors. The V1aR is coupled to the Gq/G11 family of G proteins and mediates phosphatidylinositol turnover. The agonist or antagonist character of the compounds of the invention may be determined by their ability to inhibit vasopressin-mediated turnover of phosphatidylinositol by the procedure described in the following paragraphs.
Cell culture and labeling of cells. Three days prior to the assay, near-confluent cultures of hV1a or hV1b cells were dissociated and seeded in 6-well tissue culture plates, about 100 wells being seeded from each 75 cm^2 flask (equivalent to 12:1 split ratio). Each well contained 1 mL of growth medium with 2 μCi of [^3H]myo-inositol (American Radiolabeled Chemicals, St. Louis, Mo., USA).
Incubations (V1a and V1b). All assays were in triplicate except for basal and 10 nM AVP (both n=6). AVP ((arginine vasopressin), Peninsula Labs, Belmont, Calif., USA (#8103)) was dissolved in 0.1N acetic acid. Test agents were dissolved in DMSO and diluted in DMSO to 200 times the final test concentration. […] The order of incubations was randomized. Incubations were initiated by removing the prelabeling medium, washing the monolayer once with 1 mL of 0.9% NaCl, and transferring the contents of the assay tubes to corresponding wells. The plates were incubated for 1 hour at 37° C. Incubations were terminated by removing the incubation medium and adding 500 μL of ice cold 5% (w/v) trichloroacetic acid and allowing the wells to stand for 15 min.
Measurement of [^3H]inositol phosphates (V1a and V1b). BioRad Poly-Prep Econo-Columns were packed with 0.3 mL of AG 1 X-8 100-200 formate form resin. Resin was mixed 1:1 with water and 0.6 mL added to each column. Columns were then washed with 10 mL water. Scintillation vials (20 mL) were placed under each column. For each well, the contents were transferred to a minicolumn, after which the well was washed with 0.5 mL distilled water, which was also added to the minicolumn. The columns were then washed twice with 5 mL of 5 mM myo-inositol to elute free inositol. Aliquots (1 mL) were transferred to 20 mL scintillation vials and 10 mL of Beckman Ready Protein Plus added. After the myo-inositol wash was complete, empty scintillation vials were placed under the columns, and [^3H]inositol phosphates were eluted with three additions of 1 mL 0.5 M ammonium formate containing 0.1 N formic acid. […] Inositol lipids were measured by adding 1 mL of 2% sodium dodecyl sulfate (SDS) to each well, allowing the wells to stand for at least 30 min., and transferring the solution to 20 mL scintillation vials, to which 10 mL Beckman Ready Protein Plus scintillation fluid was then added. Samples were counted in a Beckman LS 3801 liquid scintillation counter for 10 min. Total inositol incorporation for each well was calculated as the sum of free inositol, inositol phosphates, and inositol lipids.
Data analysis (V1a and V1b): concentration-inhibition experiments. Concentration-response curves for AVP and concentration-inhibition curves for test agents versus 10 nM AVP were analyzed by nonlinear least-squares curve-fitting to a 4-parameter logistic function. […] The curve-fitting was weighted under the assumption that the standard deviation was proportional to dpm of radioactivity. […]

human V1a receptor [2] = target: T2, human V1a receptor; assay: Human vasopressin V1a receptor binding assay; conditions: hV1a cell line, [3H]-AVP
Method: EXAMPLE. Human vasopressin V1a receptor binding assay. A cell line expressing the human V1a receptor in CHO cells (henceforth referred to as the hV1a cell line) was obtained from Dr. Michael Brownstein, NIMH, Bethesda, Md., USA. The hV1a cDNA sequence is described by Thibonnier et al., Journal of Biological Chemistry, 269, 3304-3310 (1994), and the expression method was the same as described by Morel et al. (1992). The hV1a cell line was grown in alpha-MEM with 10% fetal bovine serum and 250 ug/ml G418 (Gibco, Grand Island, N.Y., USA). For competitive binding assay, hV1a cells were plated into 6-well culture plate at 1:10 dilution from a confluency flask, and maintained in culture for at least two days. Culture medium was then removed, cells were washed with 2 ml binding buffer (25 mM Hepes, 0.25% BSA, 1×DMEM, PH=7.0). To each well, 990 μl binding buffer containing 1 nM 3H-AVP was added, and followed by 10 μl series diluted Example compounds dissolved in DMSO. […] 100 nM cold AVP (Sigma) was used to assess non-specific binding. Cells were incubated for 45 minutes at 37° C., assay mixture was removed and each well was washed three times with PBS (pH=7.4). 1 ml 2% SDS was added per well and plates were let sit for 30 minutes. The whole content in a well was transferred to a scintillation vial. Each well was rinsed with 0.5 ml PBS which was then added to the corresponding vial. Scintillation fluid (Ecoscint, National Diagnostics, Atlanta, Ga.) was then added at 3 ml per vial. Samples were counted in a liquid scintillation counter (Beckman LS3801). IC50 values were calculated by Prism Curve fitting software.
All of the alkanedioic esters and amides exemplified in the foregoing examples dissolved in DMSO were tested in this assay. Binding curves were generated according to methods described by Thibonnier et al. (1994). [^3H]-AVP was added to the hV1a cell cultures followed by 10-fold dilutions of each test compound.

T2 sequence (P37288 whole entry): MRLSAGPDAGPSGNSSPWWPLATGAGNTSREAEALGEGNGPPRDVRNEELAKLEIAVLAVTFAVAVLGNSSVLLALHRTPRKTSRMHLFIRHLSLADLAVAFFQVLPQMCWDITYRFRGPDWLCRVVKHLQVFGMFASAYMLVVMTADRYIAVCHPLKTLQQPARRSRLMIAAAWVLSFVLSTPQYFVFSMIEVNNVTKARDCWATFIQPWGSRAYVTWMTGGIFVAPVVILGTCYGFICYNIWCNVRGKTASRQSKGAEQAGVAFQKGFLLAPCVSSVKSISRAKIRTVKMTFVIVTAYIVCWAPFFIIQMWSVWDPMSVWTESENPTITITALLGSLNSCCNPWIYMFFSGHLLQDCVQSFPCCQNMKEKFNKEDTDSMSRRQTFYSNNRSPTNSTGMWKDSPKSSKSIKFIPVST
V2, sequence (P30518 whole entry): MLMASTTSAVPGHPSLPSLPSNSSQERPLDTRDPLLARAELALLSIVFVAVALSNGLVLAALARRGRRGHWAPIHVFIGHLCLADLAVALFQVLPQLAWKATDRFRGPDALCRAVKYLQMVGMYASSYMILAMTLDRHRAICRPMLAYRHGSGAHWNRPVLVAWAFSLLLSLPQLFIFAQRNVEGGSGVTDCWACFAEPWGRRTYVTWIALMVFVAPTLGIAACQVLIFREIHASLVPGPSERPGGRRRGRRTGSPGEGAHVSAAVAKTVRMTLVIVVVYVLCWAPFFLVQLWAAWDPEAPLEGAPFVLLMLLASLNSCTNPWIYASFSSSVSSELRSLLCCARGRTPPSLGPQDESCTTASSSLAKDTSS

SMILES: O=C(NCc1cccc(C(F)(F)F)c1)C(CC(=O)N1CCC(N2CCCCC2)CC1)N1C(=O)C(N2C(=O)OCC2c2ccccc2)C1C=Cc1ccccc1 (stereo not shown) [Example 44]
agonist or antagonist character (inhibition of vasopressin-mediated phosphatidylinositol turnover) (human V1a receptor [1]): vasopressin V1a antagonists

SMILES: O=C(NCc1cccc(C(F)(F)F)c1)C(CCC(=O)N1CCC(N2CCCCC2)CC1)N1C(=O)C(N2C(=O)OCC2c2ccccc2)C1C=Cc1ccccc1 (stereo not shown) [Example 88]
agonist or antagonist character (inhibition of vasopressin-mediated phosphatidylinositol turnover) (human V1a receptor [1]): vasopressin V1a antagonists

SMILES: O=C(NCc1cccc(C(F)(F)F)c1)[C@H](CCC(=O)N1CCN(CCc2ccccc2)CC1)N1C(=O)[C@@H](N2C(=O)OC[C@@H]2c2ccccc2)[C@H]1C=Cc1ccccc1 (single isomer, unassigned) [Example 35]
agonist or antagonist character (inhibition of vasopressin-mediated phosphatidylinositol turnover) (human V1a receptor [1]): vasopressin V1a antagonists

Next, values leading:

T1/2 (Pharmacokinetics): improved | accumulation (Pharmacokinetics): 1.7 fold | Ki (V2): > 1000 nM | Ki (V1b receptor): > 1000 nM
SMILES: C[C@@H](NC(=O)[C@@H](CC(=O)N1CCC(N2CCCCC2)CC1)N1C(=O)[C@@H](N2C(=O)OC[C@@H]2c2ccccc2)[C@H]1/C=C/c1ccccc1)c1ccccc1 [Example 224, 2(R)-[[4-(Piperidinyl)piperidinyl]carbonylmethyl]-2-[3(S)-(4(S)-phenyloxazolidin-2-on-3-yl)-4(R)-(2-styryl)azetidin-2-on-1-yl]acetic acid N—[(R)-α-methylbenzyl]amide]

Ki (V2): > 1000 nM | IC50 (human V1a receptor [2]): 1.86 to 2.13 nM | Ki (human V1a receptor [2]): 1.14 to 1.3 nM | Ki (V1b receptor): > 1000 nM
SMILES: CN(Cc1cccc(C(F)(F)F)c1)C(=O)[C@@H](CC(=O)N1CCC(N2CCCCC2)CC1)N1C(=O)[C@@H](N2C(=O)OC[C@@H]2c2ccccc2)[C@H]1/C=C/c1ccccc1 [Example 225, 2(R)-[[4-(Piperidinyl)piperidinyl]carbonylmethyl]-2-[3(S)-(4(S)-phenyloxazolidin-2-on-3-yl)-4(R)-(2-styryl)azetidin-2-on-1-yl]acetic acid N-methyl-N-(3-trifluoromethylbenzyl)amide]

agonist or antagonist character (inhibition of vasopressin-mediated phosphatidylinositol turnover) (human V1a receptor [1]): vasopressin V1a antagonists
SMILES: O=C(NCc1cccc(C(F)(F)F)c1)C(CC(=O)N1CCC(N2CCCCC2)CC1)N1C(=O)C(N2C(=O)OCC2c2ccccc2)C1C=Cc1ccccc1 (stereo not shown) [Example 133]

agonist or antagonist character (inhibition of vasopressin-mediated phosphatidylinositol turnover) (human V1a receptor [1]): vasopressin V1a antagonists
SMILES: O=C(NCc1cccc(C(F)(F)F)c1)C(CCC(=O)N1CCN(C2CCCCC2)CC1)N1C(=O)C(N2C(=O)OCC2c2ccccc2)C1C=Cc1ccccc1 (single isomer, unassigned) [Example 110]
